pIC50: −log10 of the molar value. Where a name gives a salt, the structure may show the parent alone.
Tests used:
[1] = tested on: human lung carcinoma cell line A549; assay: In vitro cytotoxicity, clone forming assay in A549 cells; type: cell-based; settings: A549, 24 h exposure, 12 days cultivation
Description: In vitro cytotoxicity of compounds (+)-8a-e and (+)-4a-e: Adherent cells of line A549 were sown in triplicate in 6 multiwell plates at concentrations of 10^2, 10^3, 10^4, and 10^5 cells per cavity. Culture medium was removed after 24 h and cells were washed hi the incubation medium Ultraculture (UC, serum-free special medium, purchased from BioWhittaker Europe, Verviers, Belgium). Incubation with compounds (+)-8a-e and (+)-4a-e was then performed in Ultraculture medium at various concentrations for 24 h. All substances were used as freshly prepared solutions in DMSO (Merck, Darmstadt, Germany) diluted with incubation medium to a final concentration of 1% DMSO in the wells. After 24 h of exposure the test substance was removed and the cells were washed with fresh medium. Cultivation was done at 37° C. and 7.5% CO2 in air for 12 days. The medium was removed and the clones were dried and stained with Löffler's methylene blue (Merck, Darmstadt, Germany). They were then counted macroscopically.
The IC50 values are based on the relative clone forming rate, which was determined according to the following formula: relative clone forming rate [%]=100×(number of clones counted after exposure)/(number of clones counted in the control).
Liberation of the drugs from their glycosidic prodrugs was achieved by addition of 4.0 U·mL^−1 β-D-galactosidase (EC 3.2.1.23, Grade X, purchased from Sigma Germany, Deisenhofen, Germany) to the cells during incubation with the substances.

[2] = tested on: MDA-MB-231 cells (estrogen-independent human breast cancer cell line); assay: ADEPT in vivo experiment, orthotopic breast tumor SCID mouse model
Description: Compound (+)-8a was evaluated in an orthotopic breast tumor SCID mouse model using the ADEPT concept. Female SCID mice were inoculated with 1×10^6 MDA-MB-231 cells (estrogen-independent human breast cancer cell line) suspended in 25 μl sterile PBS in the mammary fad pat of the 4th mammary complex. Tumors were allowed to grow and ADEPT therapy was started after tumor volumes reached a detectable size. Mice were treated according to the treatment schedule in FIG. 17 and received two treatment cycles of a monoclonal anti-human urokinase plasminogen activator receptor (uPAR) antibody conjugated with β-Galactosidase, uPAR*β-Gal, in PBS followed by three injections with conjugate (+)-8a in 1% DMSO/NaCl solution. Control groups received either antibody-enzyme and 1% DMSO/NaCl solution (antibody-enzyme only group), PBS and conjugate (conjugate only group), or PBS and 1% DMSO/NaCl solution (control group).
In vivo evaluation of compound (+)-8a in an orthotopic breast tumor SCID mouse model using the ADEPT concept: Before tumor cell implantation, female SCID mice were anesthetized by peritoneal injection of 75 mg/kg ketamine hydrochloride with 15 mg/kg xylazine. 1×10^6 MDA-MB-231 cells (estrogen-independent human breast cancer cell line) suspended in 25 μl sterile phosphate-buffered saline (PBS) were then implanted into the mammary fad pat of the 4th mammary complex. After implantation, mice were inspected daily for body weight loss, general condition, and tumor formation. On day 21, animals were randomized in groups of 5-12 mice (control, antibody-enzyme only, prodrug only, and ADEPT therapy). On days 22 and 30, mice were injected intravenously with PBS (control, prodrug only groups) or 50 μg of a monoclonal anti-human urokinase plasminogen activator receptor (uPAR) antibody conjugated with β-Galactosidase, uPAR*β-Gal, in PBS (antibody-enzyme only, ADEPT therapy groups). On days 24, 26, 28, 32, 34, and 36, mice were injected intravenously with 1% DMSO/NaCl solution (control, antibody-enzyme only groups) or 104 μg of (+)-8a in 1% DMSO/NaCl solution (prodrug only, ADEPT therapy groups). Mice were sacrificed on day 38 and tumors were excised, weighed, placed in phosphate-buffered 4% formalin for 16 hours at room temperature, and embedded in paraffin. Tissue sections (2.5 μm) were obtained, stained with hematoxylin and eosin (H & E), and inspected by routine microscopic examinations. For immunohistochemistry, 2.5 μm sections from formalin-fixed and paraffin-embedded tissues, were mounted on slides, deparaffinized in xylene and rehydrated in ethanol/water dilutions. Slides for Ki67 staining were pretreated by boiling in a microwave oven (5×5 min) in citrate buffer (pH 6.0) for antigen retrieval. Endogenous peroxidases were inactivated by treatment with 3% hydrogen peroxide for 10 min. Tris-buffered 10% rabbit serum solution (Dako, Hamburg, Germany, No. X 0902) was then added to block nonspecific protein binding and slides were incubated with murine anti-human Ki67 (Dianova, Hamburg, Germany, No. dia 505) for 60 min (2 μg/ml) followed by exposure to biotinylated rabbit anti-mouse F(ab′)2-fragment (Dako, No. E 0413, 16.8 μg/ml) for 30 min. Sections were then incubated with avidin-peroxidase solution (Dako, No. P 364), stained with aminoethylcarbazole (AEC substrate solution, Sigma), rinsed in water, and finally counterstained with hematoxylin.

[3] = without addition of β-D-galactosidase
[4] = with addition of 4.0 U/mL β-D-galactosidase

CC(Cl)C1CN(C(=O)c2cc3cc(OCCN(C)C)ccc3[nH]2)c2cc(O)c3ccccc3c21 (single isomer, unassigned; (+)) [(+)-4a, (1,10)-anti-1-(10-Chloroethyl)-5-hydroxy-3-[(5-(2-(N,N-dimethylamino)ethoxy)indol-2-yl)carbonyl]-1,2-dihydro-3H-benz[e]indole-hydrochloride]
pIC50 [1, 3]: 9.12

CC(Cl)C1CN(C(=O)c2cc3cc(OCCN4CCOCC4)ccc3[nH]2)c2cc(O)c3ccccc3c21 (single isomer, unassigned; (+)) [(+)-4b, (+)-{(1,10)-anti-1-(10-Chloroethyl)-5-hydroxy-3-[(5-(2-(morpholin-4-yl)ethoxy)indol-2-yl)carbonyl]-1,2-dihydro-3H-benz[e]indole-hydrochloride}]
pIC50 [1, 3]: 8.43

COc1cc2[nH]c(C(=O)N3CC(C(C)Cl)c4c3cc(O)c3ccccc43)cc2cc1OCCN(C)C (single isomer, unassigned; (+)) [(+)-4c, (+)-{(1,10)-anti-1-(10-Chloroethyl)-5-hydroxy-3-[(5-(2-(N,N-dimethylamino)ethoxy)-6-methoxy-indol-2-yl)carbonyl]-1,2-dihydro-3H-benz[e]indole-hydrochloride}]
pIC50 [1, 3]: 9.70

CC(Cl)C1CN(C(=O)c2cc3cc(OCC4CCN(C)CC4)ccc3[nH]2)c2cc(O)c3ccccc3c21 (single isomer, unassigned; (+)) [(+)-4d, (+)-{(1,10)-anti-1-(10-Chloroethyl)-5-hydroxy-3-[(5-((1-methylpiperidin-4-yl)methoxy)indol-2-yl)carbonyl]-1,2-dihydro-3H-benz[e]indole-hydrochloride}]
pIC50 [1, 3]: 9.10

CC(Cl)C1CN(C(=O)c2cc3cc(NC(=O)CN(C)C)ccc3[nH]2)c2cc(O)c3ccccc3c21 (single isomer, unassigned; (+)) [(+)-4e]
pIC50 [1, 3]: 8.42

CC(Cl)C1CN(C(=O)c2cc3cc(OCCN4CCOCC4)ccc3[nH]2)c2cc(O[C@@H]3O[C@H](CO)[C@H](O)[C@H](O)[C@H]3O)c3ccccc3c21 (single isomer, unassigned; (+)) [(+)-8b, [(+)-(1,10)-anti-1-(10-Chloroethyl)-3-[(5-(2-(morpholin-4-yl)ethoxy)-indol-2-yl)carbonyl]-1,2-dihydro-3H-benz[e]indol-5-yl]-β-D-galactopyranoside]
pIC50 [1, 4]: 8.60
pIC50 [1, 3]: 5.82

CC(Cl)C1CN(C(=O)c2cc3cc(OCC4CCN(C)CC4)ccc3[nH]2)c2cc(O[C@@H]3O[C@H](CO)[C@H](O)[C@H](O)[C@H]3O)c3ccccc3c21 (single isomer, unassigned; (+)) [(+)-8d, [(+)-(1,10)-anti-1-(10-Chloroethyl)-3-[(5-((1-methylpiperidin-4-yl)methoxy)-indol-2-yl)carbonyl]-1,2-dihydro-3H-benz[e]indol-5-yl]-β-D-galactopyranoside]
pIC50 [1, 4]: 9.12
pIC50 [1, 3]: 6.08

C[C@@H](Cl)[C@@H]1CN(C(=O)c2cc3cc(OCCN(C)C)ccc3[nH]2)c2cc(O[C@@H]3O[C@H](CO)[C@H](O)[C@H](O)[C@H]3O)c3ccccc3c21 [(1S,10R)-8a and (1R,10S)-8a′, [(1,10)-anti-1-(10-Chloroethyl)-3-[(5-(2-(N,N-dimethylamino)ethoxy)-indol-2-yl)carbonyl]-1,2-dihydro-3H-benz[e]indol-5-yl]-β-D-galactopyranoside]
pIC50 [1, 4]: 8.92
pIC50 [1, 3]: 5.10

C[C@@H](Cl)[C@@H]1CN(C(=O)c2cc3cc(OCCN(C)C)ccc3[nH]2)c2cc(O[C@@H]3O[C@H](CO)[C@H](O)[C@H](O)[C@H]3O)c3ccccc3c21 [(+)-8a, [(1,10)-anti-1-(10-Chloroethyl)-3-[(5-(2-(N,N-dimethylamino)ethoxy)-indol-2-yl)carbonyl]-1,2-dihydro-3H-benz[e]indol-5-yl]-β-D-galactopyranoside]
pIC50 ([1]; with addition of 4.0 U/mL β-D-galactosidase, listed as (1S,10R)-8a): 9.12
pIC50 ([1]; without addition of β-D-galactosidase, listed as (1S,10R)-8a): 5.44
average primary tumor volume ([2]; ADEPT therapy (uPAR*β-Gal followed by (+)-8a i.v.), after one treatment cycle): 0.23±0.07 cm^3
mean tumor volume ([2]; ADEPT therapy (uPAR*β-Gal followed by (+)-8a i.v.), after two treatment cycles): 0.33±0.13 cm^3
necrotic tissue within tumors ([2]; ADEPT therapy versus vehicle-treated mice): more necrotic tissue within tumors
tolerability ([2]; ADEPT therapy, all animals): well tolerated
blood parameters ([2]; treated mice compared to controls): not altered
inhibitory effect on tumor growth with respect to vehicle control ([2]; treatment with the substance alone (antibody-enzyme only or conjugate only group)): no inhibitory effect

COc1cc2[nH]c(C(=O)N3C[C@@H]([C@@H](C)Cl)c4c3cc(O[C@@H]3O[C@H](CO)[C@H](O)[C@H](O)[C@H]3O)c3ccccc43)cc2cc1OCCN(C)C [(+)-8c, [(+)-(1S,10R)-1-(10-Chloroethyl)-3-[(5-(2-(N,N-dimethylamino)ethoxy)-6-methoxy-indol-2-yl)carbonyl]-1,2-dihydro-3H-benz[e]indol-5-yl]-β-D-galactopyranoside]
pIC50 [1, 4]: 9.66
pIC50 [1, 3]: 6.03

C[C@@H](Cl)[C@@H]1CN(C(=O)c2cc3cc(NC(=O)CN(C)C)ccc3[nH]2)c2cc(O[C@@H]3O[C@H](CO)[C@H](O)[C@H](O)[C@H]3O)c3ccccc3c21 [(+)-8e]
pIC50 [1, 4]: 8.23
pIC50 [1, 3]: 5.11

— US8940784B2, “Water-soluble CC-1065 analogs and their conjugates” (priority 2006, dated 2015)
